Experiments:
[1] = molecular target: Ribosomal protein S6 kinase alpha-1 (Homo sapiens, UniProt Q15418); assay: Selectivity interaction (Ambit KINOMEscan and KiNATiv profiling in Jurkat cells) EUB0000090b RPS6KA1; assay type: cell-based; conditions: at 1 µM
[2] = molecular target: Serine/threonine-protein kinase Nek6 (Homo sapiens) (UniProt Q9HC98); assay: Selectivity interaction (KinomeScan (DiscoverX)) EUB0000655a NEK6; conditions: at 10 µM
[3] = molecular target: Serine/threonine-protein kinase 10 (Homo sapiens) (UniProt O94804); assay: Selectivity interaction (KinomeScan (DiscoverX)) EUB0000655a STK10; conditions: at 10 µM
Chain of Serine/threonine-protein kinase 10 (Homo sapiens) (O94804 whole entry, looked up): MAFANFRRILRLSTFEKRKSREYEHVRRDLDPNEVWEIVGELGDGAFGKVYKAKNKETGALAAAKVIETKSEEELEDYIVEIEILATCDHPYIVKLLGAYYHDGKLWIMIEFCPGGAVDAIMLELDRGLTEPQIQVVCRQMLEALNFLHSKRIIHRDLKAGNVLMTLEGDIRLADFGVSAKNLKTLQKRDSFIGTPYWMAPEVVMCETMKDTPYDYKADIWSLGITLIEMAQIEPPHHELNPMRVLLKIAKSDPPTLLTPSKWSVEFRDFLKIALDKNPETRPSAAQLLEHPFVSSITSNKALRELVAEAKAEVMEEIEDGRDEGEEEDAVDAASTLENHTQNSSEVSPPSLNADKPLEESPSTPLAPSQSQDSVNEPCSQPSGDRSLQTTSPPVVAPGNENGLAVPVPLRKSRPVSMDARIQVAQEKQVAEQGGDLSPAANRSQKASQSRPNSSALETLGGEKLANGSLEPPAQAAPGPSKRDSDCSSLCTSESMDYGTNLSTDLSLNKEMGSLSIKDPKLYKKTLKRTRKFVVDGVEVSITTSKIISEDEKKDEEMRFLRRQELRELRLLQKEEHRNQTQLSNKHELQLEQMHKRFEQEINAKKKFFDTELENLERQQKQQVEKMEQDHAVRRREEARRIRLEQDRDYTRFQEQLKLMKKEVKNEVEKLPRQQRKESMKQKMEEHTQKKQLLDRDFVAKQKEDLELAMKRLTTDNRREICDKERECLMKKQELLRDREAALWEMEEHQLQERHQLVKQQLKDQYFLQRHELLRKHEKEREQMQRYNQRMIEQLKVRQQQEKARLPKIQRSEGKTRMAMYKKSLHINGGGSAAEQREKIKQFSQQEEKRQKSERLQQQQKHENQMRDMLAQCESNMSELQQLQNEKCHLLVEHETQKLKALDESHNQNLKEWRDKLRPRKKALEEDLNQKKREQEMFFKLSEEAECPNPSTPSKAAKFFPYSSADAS

[4] = molecular target: Serine/threonine-protein kinase PAK 4 (Homo sapiens, UniProt O96013); assay: Selectivity interaction (KinomeScan (DiscoverX)) EUB0001079a PAK4; conditions: at 1 µM
Chain of Serine/threonine-protein kinase PAK 4 (O96013 whole entry, looked up): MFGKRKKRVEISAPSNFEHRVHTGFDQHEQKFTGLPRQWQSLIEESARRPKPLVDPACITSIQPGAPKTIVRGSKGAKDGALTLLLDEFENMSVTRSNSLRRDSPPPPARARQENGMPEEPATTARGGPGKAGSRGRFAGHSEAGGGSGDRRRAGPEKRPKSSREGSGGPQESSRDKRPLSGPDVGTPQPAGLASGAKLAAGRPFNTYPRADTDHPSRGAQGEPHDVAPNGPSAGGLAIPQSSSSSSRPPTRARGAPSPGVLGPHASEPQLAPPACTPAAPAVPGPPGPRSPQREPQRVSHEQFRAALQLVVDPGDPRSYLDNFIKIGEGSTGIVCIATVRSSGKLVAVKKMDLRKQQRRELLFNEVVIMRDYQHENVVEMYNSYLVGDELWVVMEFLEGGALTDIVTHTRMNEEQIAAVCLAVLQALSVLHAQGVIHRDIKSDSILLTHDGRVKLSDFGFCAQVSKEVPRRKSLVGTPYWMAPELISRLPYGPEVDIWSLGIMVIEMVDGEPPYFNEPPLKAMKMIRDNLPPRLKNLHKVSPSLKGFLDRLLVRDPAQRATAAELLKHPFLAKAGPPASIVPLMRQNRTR

[5] = molecular target: T1, Serine/threonine-protein kinase PLK4 (Homo sapiens) (UniProt O00444); assay: Selectivity interaction (KinomeScan (DiscoverX)) EUB0001079a PLK4; conditions: at 1 µM
T1 sequence (whole entry): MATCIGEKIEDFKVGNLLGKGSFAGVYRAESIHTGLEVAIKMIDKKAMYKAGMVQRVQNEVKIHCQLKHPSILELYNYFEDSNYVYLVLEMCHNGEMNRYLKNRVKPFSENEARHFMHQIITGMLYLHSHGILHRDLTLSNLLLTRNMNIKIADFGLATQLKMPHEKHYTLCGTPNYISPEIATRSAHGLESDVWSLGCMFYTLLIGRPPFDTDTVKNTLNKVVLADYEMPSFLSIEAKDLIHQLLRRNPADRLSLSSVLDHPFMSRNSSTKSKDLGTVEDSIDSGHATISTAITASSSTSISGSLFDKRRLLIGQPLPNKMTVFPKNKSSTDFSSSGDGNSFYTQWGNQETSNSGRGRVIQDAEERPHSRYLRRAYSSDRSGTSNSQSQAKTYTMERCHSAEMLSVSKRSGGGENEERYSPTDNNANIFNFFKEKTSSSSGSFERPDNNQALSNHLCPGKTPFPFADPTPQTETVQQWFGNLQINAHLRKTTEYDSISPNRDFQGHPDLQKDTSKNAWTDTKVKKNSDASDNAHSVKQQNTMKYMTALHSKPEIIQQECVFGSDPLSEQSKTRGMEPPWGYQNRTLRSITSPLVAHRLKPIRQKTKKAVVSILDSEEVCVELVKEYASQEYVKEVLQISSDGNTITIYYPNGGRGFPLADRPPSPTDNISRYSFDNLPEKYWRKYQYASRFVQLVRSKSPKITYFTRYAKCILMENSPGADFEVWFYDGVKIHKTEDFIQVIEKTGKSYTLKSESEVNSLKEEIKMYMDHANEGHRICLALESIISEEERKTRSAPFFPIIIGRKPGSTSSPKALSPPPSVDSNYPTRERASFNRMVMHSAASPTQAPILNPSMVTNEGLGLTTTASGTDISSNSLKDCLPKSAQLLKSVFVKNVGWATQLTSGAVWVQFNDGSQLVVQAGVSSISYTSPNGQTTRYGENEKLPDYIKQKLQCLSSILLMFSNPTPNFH

[6] = molecular target: MAP kinase-activated protein kinase 2 (Homo sapiens, UniProt P49137); assay: Selectivity interaction (KinomeScan (DiscoverX)) EUB0000618a MAPKAPK2; conditions: at 10 µM
Chain of MAP kinase-activated protein kinase 2 (P49137 whole entry, looked up): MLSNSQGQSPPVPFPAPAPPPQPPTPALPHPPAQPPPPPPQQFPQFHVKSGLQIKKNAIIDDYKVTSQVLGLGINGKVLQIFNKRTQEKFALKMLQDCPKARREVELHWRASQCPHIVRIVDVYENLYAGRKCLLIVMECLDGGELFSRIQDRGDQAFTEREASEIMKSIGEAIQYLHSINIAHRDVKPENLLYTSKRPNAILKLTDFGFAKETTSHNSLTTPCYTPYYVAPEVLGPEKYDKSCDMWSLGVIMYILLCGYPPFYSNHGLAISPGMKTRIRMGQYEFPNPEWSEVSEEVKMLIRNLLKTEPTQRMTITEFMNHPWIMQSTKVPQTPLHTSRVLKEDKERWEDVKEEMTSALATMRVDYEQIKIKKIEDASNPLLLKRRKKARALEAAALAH

[7] = molecular target: T2, Serine/threonine-protein kinase BRSK2 (Homo sapiens) (UniProt Q8IWQ3); assay: Selectivity interaction (SelectScreen profiling (Invitrogen)) EUB0000607a BRSK2; conditions: at 2 µM
T2 sequence (whole entry): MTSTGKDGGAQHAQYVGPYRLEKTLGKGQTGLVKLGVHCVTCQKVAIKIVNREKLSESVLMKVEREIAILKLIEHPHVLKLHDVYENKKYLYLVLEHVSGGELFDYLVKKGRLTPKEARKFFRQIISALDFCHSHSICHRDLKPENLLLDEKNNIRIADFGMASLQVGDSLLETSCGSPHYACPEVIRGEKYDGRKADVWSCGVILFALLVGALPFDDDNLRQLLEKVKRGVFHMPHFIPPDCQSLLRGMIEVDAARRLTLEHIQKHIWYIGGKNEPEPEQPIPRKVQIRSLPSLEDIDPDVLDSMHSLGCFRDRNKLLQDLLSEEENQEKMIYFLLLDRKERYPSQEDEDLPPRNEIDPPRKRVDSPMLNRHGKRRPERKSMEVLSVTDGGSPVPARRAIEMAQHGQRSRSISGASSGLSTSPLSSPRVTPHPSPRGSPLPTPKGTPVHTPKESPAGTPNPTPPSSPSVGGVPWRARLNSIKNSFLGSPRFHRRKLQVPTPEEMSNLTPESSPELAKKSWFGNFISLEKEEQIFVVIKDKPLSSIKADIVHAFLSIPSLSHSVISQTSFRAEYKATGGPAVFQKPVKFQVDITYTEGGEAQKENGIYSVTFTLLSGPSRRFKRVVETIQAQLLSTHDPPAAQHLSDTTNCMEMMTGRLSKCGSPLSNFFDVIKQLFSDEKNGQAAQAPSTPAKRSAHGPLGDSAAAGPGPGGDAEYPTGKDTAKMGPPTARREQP

[8] = molecular target: Mitogen-activated protein kinase 14 (Homo sapiens, UniProt Q16539); assay: Selectivity interaction (KinomeScan (DiscoverX)) EUB0000045b MAPK14
Chain of Mitogen-activated protein kinase 14 (Q16539 whole entry): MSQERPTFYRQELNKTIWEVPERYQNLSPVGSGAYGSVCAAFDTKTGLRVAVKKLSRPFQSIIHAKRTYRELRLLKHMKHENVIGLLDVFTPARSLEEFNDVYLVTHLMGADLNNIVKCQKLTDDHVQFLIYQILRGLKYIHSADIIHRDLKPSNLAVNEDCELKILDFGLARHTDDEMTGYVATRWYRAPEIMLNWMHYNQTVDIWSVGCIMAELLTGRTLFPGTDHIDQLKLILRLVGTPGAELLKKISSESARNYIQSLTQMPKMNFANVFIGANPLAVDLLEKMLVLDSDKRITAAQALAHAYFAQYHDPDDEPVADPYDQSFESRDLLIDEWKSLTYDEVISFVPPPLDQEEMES

[9] = molecular target: T3, Dual specificity mitogen-activated protein kinase kinase 7 (Homo sapiens) (UniProt O14733); assay: Selectivity interaction (KinomeScan (DiscoverX)) EUB0000595a MAP2K7; conditions: at 10 µM
T3 sequence (whole entry): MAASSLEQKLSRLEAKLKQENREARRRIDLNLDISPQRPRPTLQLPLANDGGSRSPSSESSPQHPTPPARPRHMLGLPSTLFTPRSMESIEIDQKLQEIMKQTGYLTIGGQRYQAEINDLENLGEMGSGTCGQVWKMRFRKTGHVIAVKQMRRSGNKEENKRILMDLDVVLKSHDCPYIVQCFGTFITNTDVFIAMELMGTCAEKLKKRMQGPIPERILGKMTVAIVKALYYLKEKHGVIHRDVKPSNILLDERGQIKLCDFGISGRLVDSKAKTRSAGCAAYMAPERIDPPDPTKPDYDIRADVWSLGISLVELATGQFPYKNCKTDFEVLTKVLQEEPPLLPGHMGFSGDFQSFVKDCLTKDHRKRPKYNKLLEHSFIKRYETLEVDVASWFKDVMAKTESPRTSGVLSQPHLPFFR

[10] = molecular target: Serine/threonine-protein kinase ICK (Homo sapiens, UniProt Q9UPZ9); assay: Selectivity interaction (Kinase panel (Invitrogen, enzymatic assay)) EUB0000162b ICK
Chain of Serine/threonine-protein kinase ICK (Q9UPZ9 whole entry): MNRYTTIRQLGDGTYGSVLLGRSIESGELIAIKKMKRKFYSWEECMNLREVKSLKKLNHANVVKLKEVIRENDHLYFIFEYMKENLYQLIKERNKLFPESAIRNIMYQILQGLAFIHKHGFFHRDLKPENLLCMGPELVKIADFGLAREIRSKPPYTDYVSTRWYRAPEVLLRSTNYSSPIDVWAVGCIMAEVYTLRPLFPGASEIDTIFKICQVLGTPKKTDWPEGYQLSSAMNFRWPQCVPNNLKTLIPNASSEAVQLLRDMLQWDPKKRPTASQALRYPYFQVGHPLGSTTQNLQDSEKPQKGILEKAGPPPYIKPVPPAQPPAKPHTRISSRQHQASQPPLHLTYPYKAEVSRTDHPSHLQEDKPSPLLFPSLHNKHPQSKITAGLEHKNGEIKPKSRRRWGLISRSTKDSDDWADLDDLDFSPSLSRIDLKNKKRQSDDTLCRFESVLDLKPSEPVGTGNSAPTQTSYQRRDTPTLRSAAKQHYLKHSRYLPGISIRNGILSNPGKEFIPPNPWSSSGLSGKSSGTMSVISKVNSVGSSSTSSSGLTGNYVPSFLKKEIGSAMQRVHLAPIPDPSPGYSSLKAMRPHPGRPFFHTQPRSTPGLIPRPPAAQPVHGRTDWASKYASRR

[11] = molecular target: Serine/threonine-protein kinase SBK1 (Homo sapiens) (UniProt Q52WX2); assay: Selectivity interaction (KinomeScan (DiscoverX)) EUB0000695a SBK1; conditions: at 100 nM
Chain of Serine/threonine-protein kinase SBK1 (Homo sapiens) (Q52WX2 whole entry): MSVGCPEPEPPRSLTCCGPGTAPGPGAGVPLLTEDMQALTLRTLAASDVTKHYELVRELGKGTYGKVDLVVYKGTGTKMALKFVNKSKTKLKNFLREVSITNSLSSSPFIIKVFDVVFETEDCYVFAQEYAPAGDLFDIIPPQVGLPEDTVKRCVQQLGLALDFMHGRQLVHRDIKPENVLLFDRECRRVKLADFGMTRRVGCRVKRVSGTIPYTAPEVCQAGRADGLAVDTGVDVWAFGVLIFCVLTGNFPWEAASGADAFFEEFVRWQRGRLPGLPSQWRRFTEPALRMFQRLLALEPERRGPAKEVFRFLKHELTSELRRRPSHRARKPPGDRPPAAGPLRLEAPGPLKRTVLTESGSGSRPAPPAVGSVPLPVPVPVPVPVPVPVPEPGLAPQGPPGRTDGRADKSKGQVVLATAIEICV

Chain of Serine/threonine-protein kinase Nek6 (Homo sapiens) (Q9HC98 whole entry): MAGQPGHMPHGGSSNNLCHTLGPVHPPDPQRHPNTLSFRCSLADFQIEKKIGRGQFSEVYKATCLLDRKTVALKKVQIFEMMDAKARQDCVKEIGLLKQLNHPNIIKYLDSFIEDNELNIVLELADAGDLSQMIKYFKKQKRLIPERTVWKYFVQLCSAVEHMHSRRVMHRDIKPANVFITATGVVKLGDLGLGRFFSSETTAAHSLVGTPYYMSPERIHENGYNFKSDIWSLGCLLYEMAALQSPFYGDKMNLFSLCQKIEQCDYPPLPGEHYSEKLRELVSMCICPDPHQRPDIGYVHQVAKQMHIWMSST
Chain of Ribosomal protein S6 kinase alpha-1 (Q15418 whole entry): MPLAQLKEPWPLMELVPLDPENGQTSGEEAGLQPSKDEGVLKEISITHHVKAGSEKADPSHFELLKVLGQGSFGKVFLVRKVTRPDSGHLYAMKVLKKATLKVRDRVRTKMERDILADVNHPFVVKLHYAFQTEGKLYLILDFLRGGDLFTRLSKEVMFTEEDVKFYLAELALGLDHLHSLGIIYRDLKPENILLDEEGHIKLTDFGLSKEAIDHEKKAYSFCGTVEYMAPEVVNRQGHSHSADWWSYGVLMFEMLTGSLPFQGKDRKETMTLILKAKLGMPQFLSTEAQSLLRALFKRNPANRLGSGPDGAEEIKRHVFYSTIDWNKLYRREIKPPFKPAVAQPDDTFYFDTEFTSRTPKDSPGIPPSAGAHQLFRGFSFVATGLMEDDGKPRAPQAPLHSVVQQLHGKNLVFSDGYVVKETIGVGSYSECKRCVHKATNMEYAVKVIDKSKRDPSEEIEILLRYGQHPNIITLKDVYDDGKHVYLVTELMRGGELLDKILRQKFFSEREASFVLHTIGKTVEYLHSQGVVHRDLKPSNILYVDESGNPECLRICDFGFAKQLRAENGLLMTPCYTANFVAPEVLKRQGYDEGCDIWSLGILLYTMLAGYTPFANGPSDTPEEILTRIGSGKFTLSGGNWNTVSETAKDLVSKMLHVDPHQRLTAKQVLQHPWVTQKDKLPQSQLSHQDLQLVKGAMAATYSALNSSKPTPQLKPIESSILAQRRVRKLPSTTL

`CN(C)C/C=C/C(=O)Nc1ccc(C(=O)N2CCCC(Nc3ncc(Cl)c(-c4c[nH]c5ccccc45)n3)C2)cc1` (configuration not stated) was tested. Which % of control [1] did it give?
Its % of control is 89%.

Which results are given for `CN(C)CCOc1ccc(-c2nc(-c3ccncc3)c(-c3ccc4c(c3)CC/C4=N\O)[nH]2)cc1`?
% of control [2]: 100%; % of control [3]: 0.6%

What does the source list for `Nc1cnc(N2CCc3cc(S(=O)(=O)Nc4c(F)cc(Cl)cc4F)cc(N4CCCC4=O)c32)nc1` [TP-020n]?
% of control [4]: 89%; % of control [5]: 100%

With `O[C@H]1CC[C@H](Nc2ncc3nc(Nc4c(F)cc(F)cc4F)n([C@H]4CCOC4)c3n2)CC1` as the compound, how does the % of control [6] read?
The % of control was 71%.

With `CNC(=O)Nc1ccc(-c2nc(N3CC4CCC(C3)O4)c3cnn(C4CCC5(CC4)OCCO5)c3n2)cc1` as the compound, how does the % of inhibition [7] read?
The % of inhibition was 1%.

What does the source list for `C=CC(=O)Nc1cc(-n2c(=O)ccc3cnc4ccc(-c5ccc(NS(C)(=O)=O)cc5)cc4c32)ccc1C`?
% of control ([8]; at 1 µM): 98%; % of control ([8]; at 10 µM): 100%

How did the % of control [9] turn out when `COCC(=O)NC/C=C/c1ccc2ncnc(Nc3ccc(Oc4ccc(C)nc4)c(C)c3)c2c1` [CP-724714] was run?
The % of control was 100%.

With `CN(C)C(=O)Cn1cc(-c2ccc(-c3cncc4ccccc34)cc2)cn1` as the compound, how does the IC50 [10] read?
The IC50 was 2390 nM.

How did the % of control [11] turn out when `Cc1cc(F)c(C(=O)Nc2cccc(-c3nncn3C(C)C)n2)cc1-n1cnc(C2CC2)c1` was run?
The % of control was 93%.

— ChEMBL document CHEMBL5465560, “Selectivity Literature for EUbOPEN Chemogenomic Library” (2024)
